Common to all, as to assay: MIC determination, isogenic E. coli strains
Format in all cases: cell-based

Experiment [1] deals with Isogenic E. coli J58 strain carrying CTX-M-14. Particulars: for Mimimum Inhibitory Concentrations, CTX-M-14: isogenic E. coli strain, CAMH broth, 20 μM Apo-Transferrin, 37° C., 18 hours; for MIC: Escherichia coli, 18 h, read-out: Mimimum Inhibitory Concentrations, CTX-M-14. Here is the method: (§1) Sterile technique was used throughout these experiments. Suspensions of organisms were removed from storage (−80° C.) and partially thawed. Partially thawed organisms (1 μL) were inoculated into 3 mL sterile LB Broth in a sterile culture tube and capped, then cultured at 37° C. with shaking for 4-5 hours until the optical density at 600 nm (OD600) was greater than 0.1 on a single beam spectrophotometer.
(§2) The concentration of organisms was adjusted to 0.08-0.1 OD600 (0.5 McFarland units) by dilution with sterile cation-adjusted Meuller-Hinton (CAMH) broth. The suspensions were used within 30 minutes of preparation.
(§3) A stock solution was made of each test compound by measuring 6.4 mg of the compound on an analytical balance and dissolving it in DMSO (1 mL) to get a transparent solution. The solutions were stored at −20° C. and thawed prior to use.
(§4) Sterile CAMH broth (200 μL) containing 20 μM Apo-Transferrin was pipetted into the first row of 8 columns of a sterile, round-bottomed, transparent, 96-well microplate using an 8-channel pipette equipped with sterile tips. One hundred μL was pipetted into the wells of the remaining 11 rows.
(§5) With an 8-channel pipette equipped with sterile tips, 100 μL of the first row solution was transferred to the second row and mixed. The process was repeated for the second to third rows and continued through row 11. One hundred μL from row 11 was removed and discarded so that all 12 rows contained 100 μL. Row 12 contained no compound and rows 1-11 contained 64, 32, 16, 8, 4, 2, 1, 0.5, 0.25, 0.125, […] of a given compound.
(§6) Inoculant suspensions (0.5 μL) were added to the 12 wells of each column. The plates were then covered and incubated at 37° C. overnight for 18 hours.
(§7) For each organism the MIC was determined by identifying the transparent well with the lowest test compound concentration.
(§8) CTX-M-14 and CTX-M-15 (Class A, Group 2be beta-lactamases, hydrolyzes extended spectrum cephalosporins and monobactams);
(§9) The gene sequence for each beta-lactamase enzyme was synthesized and inserted into the pBC-SK(+) plasmid by GenScript, a commercial service. E. coli J53 was transformed with each plasmid via electroporation and resistant transformants were selected on agar plates containing 50 micrograms/mL ampicillin. The selected transformants were stored at −80 degrees C. in 20% glycerol.

In experiment [2] the test system is Isogenic E. coli J58 strain carrying CTX-M-15. Conditions: for Mimimum Inhibitory Concentrations, CTX-M-15: isogenic E. coli strain, CAMH broth, 20 μM Apo-Transferrin, 37° C., 18 hours; for MIC: Escherichia coli, 18 h, read-out: Mimimum Inhibitory Concentrations, CTX-M-15. Here is the method: as §1, §2, §3, §4, §5, §6, §7, §8, §9
In experiment [3] the test system is Isogenic E. coli J58 strain carrying DHA-1. Particulars: for Mimimum Inhibitory Concentrations, DHA-1: isogenic E. coli strain, CAMH broth, 20 μM Apo-Transferrin, 37° C., 18 hours; for MIC: Escherichia coli, 18 h, read-out: Mimimum Inhibitory Concentrations, DHA-1. Here is the method: as §1, §2, §3, §4, §5, §6, §7, §9
The subject of experiment [4] is E. coli J53 Alone. Particulars: for Mimimum Inhibitory Concentrations, J53 Alone: CAMH broth, 20 μM Apo-Transferrin, 37° C., 18 hours; for MIC: Escherichia coli, J53ALONE, 18 h, read-out: Mimimum Inhibitory Concentrations, J53 Alone. Here is the method:
as §1, §2, §3, §4, §5, §6, §7, §9

Experiment [5] concerns Isogenic E. coli J58 strain carrying NDM-1. Particulars: for Mimimum Inhibitory Concentrations, NDM-1: isogenic E. coli strain, CAMH broth, 20 μM Apo-Transferrin, 37° C., 18 hours; for MIC: Escherichia coli, 18 h, read-out: Mimimum Inhibitory Concentrations, NDM-1. Here is the method: as §1, §2, §3, §4, §5, §6, §7
NDM-1 (Group 3a carbapenemase, broad spectrum divalent Zn^++ metallo-Beta-Lactamase);
as §9

For experiment [6], the system named is Isogenic E. coli J58 strain carrying TEM-26. Conditions: for Mimimum Inhibitory Concentrations, TEM-26: isogenic E. coli strain, CAMH broth, 20 μM Apo-Transferrin, 37° C., 18 hours; for MIC: Escherichia coli, 18 h, read-out: Mimimum Inhibitory Concentrations, TEM-26. Here is the method:
as §1, §2, §3, §4, §5, §6, §7
TEM-26 (Group 2be beta-lactamase, hydrolyzes extended spectrum cephalosporins and monobactams), [25];
as §9

The subject of experiment [7] is Isogenic E. coli J58 strain carrying VIM-2. Particulars: for Mimimum Inhibitory Concentrations, VIM-2: isogenic E. coli strain, CAMH broth, 20 μM Apo-Transferrin, 37° C., 18 hours; for MIC: Escherichia coli, 18 h, read-out: Mimimum Inhibitory Concentrations, VIM-2. Here is the method: as §1, §2, §3, §4, §5, §6, §7
VIM-2 (Group 3a carbapenemase, metallo-beta-lactamase); and
as §9

The test system of experiment [8] is Isogenic E. coli J58 strain carrying KPC-3. Particulars: for Mimimum Inhibitory Concentrations, KPC-3: isogenic E. coli strain, CAMH broth, 20 μM Apo-Transferrin, 37° C., 18 hours; for MIC: Escherichia coli, 18 h, read-out: Mimimum Inhibitory Concentrations, KPC-3. Here is the method: as §1, §2, §3, §4, §5, §6, §7
(§10) KPC-2 and KPC-3 (Class A, Group 2f, carbapenemases);
as §9

Experiment [9] concerns Isogenic E. coli J58 strain carrying KPC-2. Particulars: for Mimimum Inhibitory Concentrations, KPC-2: isogenic E. coli strain, CAMH broth, 20 μM Apo-Transferrin, 37° C., 18 hours; for MIC: Escherichia coli, 18 h, read-out: Mimimum Inhibitory Concentrations, KPC-2. Here is the method:
as §1, §2, §3, §4, §5, §6, §7, §10, §9

For experiment [10], the system named is Isogenic E. coli J58 strain carrying IMP-1. Conditions: for Mimimum Inhibitory Concentrations, IMP-1: isogenic E. coli strain, CAMH broth, 20 μM Apo-Transferrin, 37° C., 18 hours; for MIC: Escherichia coli, 18 h, read-out: Mimimum Inhibitory Concentrations, IMP-1; for MICs for an E. coli strain carrying the gene for carbapenemase IMP-1, in words: review of Tables 4-1 and 4-2. Here is the method:
as §1, §2, §3, §4, §5, §6, §7
IMP-1 (Group 3a carbapenemase, metallo-beta-Lactamase).
as §9

The subject of experiment [11] is Isogenic E. coli J58 strain carrying SHV-1. Particulars: for Mimimum Inhibitory Concentrations, SHV-1: isogenic E. coli strain, CAMH broth, 20 μM Apo-Transferrin, 37° C., 18 hours; for MIC: Escherichia coli, 18 h, read-out: Mimimum Inhibitory Concentrations, SHV-1. Here is the method:
as §1, §2, §3, §4, §5, §6, §7
SHV-1 (Class A, Group 2b beta-lactamase, hydrolyzes penicillins and early cephalosporins);
as §9

Consider `CO/N=C(\C(=O)N[C@@H]1C(=O)N2C(C(=O)O)=C(C=Cc3ccc(C[n+]4ccc(OC)c(OC)c4)cc3[N+](=O)[O-])CS[C@H]12)c1csc(N)n1` (mixture of isomers) [Compound 392, 1-(4-((E/Z)-2-((6R,7R)-7-((Z)-2-(2-aminothiazol-4-yl)-2-(methoxyimino)acetamido)-2-carboxy-8-oxo-5-thia-1-azabicyclo[4.2.0]oct-2-en-3-yl)vinyl)-3-nitrobenzyl)-3,4-dimethoxypyridin-1-ium], for which the “Mimimum Inhibitory Concentrations, CTX-M-14” value in experiment [1] was above 64 microgram/mL. Further, in experiment [2], the “Mimimum Inhibitory Concentrations, CTX-M-15” value is above 64 microgram/mL. Besides, the “Mimimum Inhibitory Concentrations, DHA-1” value in experiment [3] is above 64 microgram/mL. Moreover, the “Mimimum Inhibitory Concentrations, J53 Alone” value in experiment [4] (Table 4-1) and in [4] (Table 4-2) was 64 microgram/mL each time. For the same compound, the “Mimimum Inhibitory Concentrations, NDM-1” value in experiment [5] is above 64 microgram/mL. In experiment [6], the “Mimimum Inhibitory Concentrations, TEM-26” value turned out to be 32 microgram/mL. Further, in experiment [7], the “Mimimum Inhibitory Concentrations, VIM-2” value is reported as above 64 microgram/mL. Further, the “Mimimum Inhibitory Concentrations, KPC-3” value in [8] is on record as above 64 microgram/mL. In [9], the “Mimimum Inhibitory Concentrations, KPC-2” value is reported as above 64 microgram/mL. The “Mimimum Inhibitory Concentrations, IMP-1” value in experiment [10] was above 64 microgram/mL. For the same compound, in experiment [11], the “Mimimum Inhibitory Concentrations, SHV-1” value was above 64 microgram/mL.
As to `COc1cc[n+](Cc2ccc(C=CC3=C(C(=O)O)N4C(=O)[C@@H](NC(=O)/C(=N\OC(C)(C)C(=O)O)c5csc(N)n5)[C@H]4SC3)cc2)cc1OC` (mixture of isomers) [Compound 402, 1-(4-((E/Z)-2-((6R,7R)-7-((Z)-2-(2-aminothiazol-4-yl)-2-(((2-carboxypropan-2-yl)oxy)imino)acetamido)-2-carboxy-8-oxo-5-thia-1-azabicyclo[4.2.0]oct-2-en-3-yl)vinyl)benzyl)-3,4-dimethoxypyridin-1-ium], the MIC in experiment [1] was 4 µg/mL; in experiment [2], above 64 µg/mL; in [3] it was 1 µg/mL; in experiment [4], 0.5 µg/mL; in experiment [5], above 64 µg/mL; in experiment [6] it was 4 µg/mL. Besides, the MIC in experiment [7] was 4 µg/mL; in [8], 16 µg/mL; in [9] it was 64 µg/mL; in [10] it was above 64 µg/mL; in experiment [11] it was 2 µg/mL. For the same compound, the “Mimimum Inhibitory Concentrations, J53 Alone” value in experiment [4] (Table 4-2) is listed as 0.5 microgram/mL.
On to `Cn1c[n+](Cc2ccc(C=CC3=C(C(=O)O)N4C(=O)[C@@H](NC(=O)/C(=N\OC(C)(C)C(=O)O)c5csc(N)n5)[C@H]4SC3)cc2)c2cc(O)c(O)cc21` (mixture of isomers) [Compound 415, 3-(4-((E/Z)-2-((6R,7R)-7-((Z)-2-(2-aminothiazol-4-yl)-2-(((2-carboxypropan-2-yl)oxy)imino)acetamido)-2-carboxy-8-oxo-5-thia-1-azabicyclo[4.2.0]oct-2-en-3-yl)vinyl)benzyl)-5,6-dihydroxy-1-methyl-1H-benzo[d]imidazol-3-ium], for which the MIC was 2 µg/mL in [1]; 1 µg/mL in experiment [2]; 0.5 µg/mL in [3]; 0.5 µg/mL in experiment [4]; above 64 µg/mL in [5]; 1 µg/mL in [6]. In addition, the MIC in experiment [7] came to 1 µg/mL; in experiment [8], 8 µg/mL; in experiment [9], 16 µg/mL; in [10], 16 µg/mL; in experiment [11], 1 µg/mL. In experiment [4] (Table 4-2), the “Mimimum Inhibitory Concentrations, J53 Alone” value worked out at 0.5 microgram/mL.
For `CC(C)(O/N=C(\C(=O)N[C@@H]1C(=O)N2C(C(=O)O)=C(C=Cc3ccc(C[N+]4(C)CCc5cc(O)c(O)cc5C4)cc3)CS[C@H]12)c1nsc(N)n1)C(=O)O` (mixture of isomers) [Compound 437, 2-(4-((E/Z)-2-((6R,7R)-7-((Z)-2-(5-amino-1,2,4-thiadiazol-3-yl)-2-(((2-carboxypropan-2-yl)oxy)imino)acetamido)-2-carboxy-8-oxo-5-thia-1-azabicyclo[4.2.0]oct-2-en-3-yl)vinyl)benzyl)-6,7-dihydroxy-2-methyl-1,2,3,4-tetrahydroisoquinolin-2-ium], the “Mimimum Inhibitory Concentrations, CTX-M-14” value in experiment [1] is reported as 4 microgram/mL. In addition, the “Mimimum Inhibitory Concentrations, CTX-M-15” value in [2] was determined as 0.5 microgram/mL. Further, the “Mimimum Inhibitory Concentrations, DHA-1” value in [3] came out at 0.5 microgram/mL. Besides, the “Mimimum Inhibitory Concentrations, J53 Alone” value in [4] (Table 4-1) is 0.25 microgram/mL. Besides, in experiment [4] (Table 4-2), the “Mimimum Inhibitory Concentrations, J53 Alone” value is 0.25 microgram/mL. The “Mimimum Inhibitory Concentrations, NDM-1” value in [5] is listed as above 64 microgram/mL. Besides, the “Mimimum Inhibitory Concentrations, TEM-26” value in [6] amounted to 1 microgram/mL. Besides, the “Mimimum Inhibitory Concentrations, VIM-2” value in [7] was 1 microgram/mL. The “Mimimum Inhibitory Concentrations, KPC-3” value in [8] came to 2 microgram/mL. Further, the “Mimimum Inhibitory Concentrations, KPC-2” value in [9] is 16 microgram/mL. Besides, in experiment [10], the “Mimimum Inhibitory Concentrations, IMP-1” value was determined as 0.13 microgram/mL and the “MICs for an E. coli strain carrying the gene for carbapenemase IMP-1, in words” value is recorded as “low microgram/mL MICs”. Besides, the “Mimimum Inhibitory Concentrations, SHV-1” value in experiment [11] worked out at 2 microgram/mL.
`CC(C)(O/N=C(\C(=O)N[C@@H]1C(=O)N2C(C(=O)O)=C(C=Cc3ccc(C[N+](C)(C)CCc4ccc(O)c(O)c4)cc3)CS[C@H]12)c1csc(N)n1)C(=O)O` (mixture of isomers) [Compound 440, N-(4-((E/Z)-2-((6R,7R)-7-((Z)-2-(2-aminothiazol-4-yl)-2-(((2-carboxypropan-2-yl)oxy)imino)acetamido)-2-carboxy-8-oxo-5-thia-1-azabicyclo[4.2.0]oct-2-en-3-yl)vinyl)benzyl)-2-(3,4-dihydroxyphenyl)-N,N-dimethylethan-1-aminium]: the MIC in experiment [1] was 2 µg/mL; in [2], 0.25 µg/mL; in [3] it was 0.25 µg/mL; in [4] it was 0.25 µg/mL; in [5], above 64 µg/mL; in [6], 1 µg/mL. The MIC was found to be 0.25 µg/mL in experiment [7]; 4 µg/mL in experiment [8]; 16 µg/mL in experiment [9]; 0.13 µg/mL in [10]; 1 µg/mL in experiment [11]. The “Mimimum Inhibitory Concentrations, J53 Alone” value in experiment [4] (Table 4-2) is on record as 0.25 microgram/mL. For the same compound, in experiment [10], the “MICs for an E. coli strain carrying the gene for carbapenemase IMP-1, in words” value was “low microgram/mL MICs”.
